Legend:
[1] = tested on: Porcine vascular endothelial cells (PAE); assay: NOS enzyme activity in vascular endothelial cells (PAE), NOS kit; format: cell-based; details: for NOS enzyme activity: PAE cells
Experimental: (§1) Porcine vascular endothelial cells (PAE) were provided by the Institute of Urology, Peking University. The determination of the effect of icariside II on NOS activity in the endothelial cell is conducted using NOS kit (Cayman Chemical company, Ann Arbor, Mich., USA). Vascular endothelial cells (PAE) were treated with different concentrations of icariside II (0, 10^−9, 10^−8, 10^−7, 10^−6, 10^−5 and 10^−4 M) (sildenafil as the control group). 180 μl lysate was added into each culture well. 20 μl supernatant was used for protein concentration assay with BCA protein kit. And, 100 μl supernatant was analyzed for NOS activity with NOS kit (Cayman Chemical company, Ann Arbor, Mich., USA). NOS activity (units/mg)=[(valueNos-measure−valueNOS-blank)÷(38.3×10^6)]×[(2.15+supernatant volume)÷(15×supernatant volume)]÷[protein concentration of each Petri dish].

PAE-EGFR cells [2] = assay: NOS enzyme activity in EGFR expressing PAE-EGFR cells, NOS kit; format: cell-based, porcine; details: for NOS enzyme activity: PAE-EGFR cells
Experimental: as §1, with “dish]. 1) The EGFR gene was subcloned into pGFP plasmid to construct pGFP-EGFR expression vector. With Liposome transfection reagent (Qigen), pGFP-EGFR was transfected into PAE cells. After the selection with 1800 μg/ml of G418, a single cell clone was selected. Western blot confirms the stable expression of EGFR in the PAE-EGFR cells.” for “dish].”

PAE cells = assay: eNOS protein expression by Western blot in PAE cells; format: cell-based, porcine; details: 12.5 μM, 24 hr; for eNOS protein expression (normalized to β-actin): PAE cells; for eNOS expression levels: unstable strains
Experimental: (§2) 2) 5×10^5 of the PAE cells and PAE-EGFR cells were seeded into 35 mm Petri dishes plate in quadruplicate. After 12 hours, PAE and PAE-EGFR cells was treated with 12.5 μM icariside II and sildenafil for 24 hr, respectively. Then the treated PAE and PAE-EGFR cells were lysed with RIPA buffer and subjected to 8% SDS-PAGE electrophoresis. eNOS protein expression was detect by Western blot. After development with super ECL luminescence substrate, the band was analyzed with a Optical density scanner. The results were analyzed by normalizing to β-actin. 3) 5×10^5 of the PAE cells and PAE-EGFR cells were seeded into 35 mm Petri dishes plate in quadruplicate. After 12 hours, PAE and PAE-EGFR cells was treated with 12.5 μM icariside II and sildenafil for 24 hr, respectively, in the presence or absence with 100 μg/ml of EGF. Then the treated PAE and PAE-EGFR cells were lysed with RIPA buffer and subjected to 8% SDS-PAGE electrophoresis. eNOS protein expression was detect by Western blot. After development with super ECL substrate, the band was analyzed with an Optical density scanner. The resulted results were analyzed by normalizing to β-actin.

PAE-EGFR cells [3] = assay: eNOS protein expression by Western blot in PAE-EGFR cells; format: cell-based, porcine; details: 12.5 μM, 24 hr; for eNOS protein expression (normalized to β-actin): PAE-EGFR cells; for eNOS expression levels: PAE-EGFR stable strains
Experimental: as §2, with “1) The EGFR gene was subcloned into pGFP plasmid to construct pGFP-EGFR expression vector. With Liposome transfection reagent (Qigen), pGFP-EGFR was transfected into PAE cells. After the selection with 1800 μg/ml of G418, a single cell clone was selected. Western blot confirms the stable expression of EGFR in the PAE-EGFR cells. 2)” for “2)”

[4] = tested on: Primary human corpus cavernosum smooth muscle cells (CCSMCs); assay: cGMP/cAMP biosynthesis in corpus cavernosum smooth muscle cells; format: cell-based; details: 4 hours; for effect on the cAMP concentration: P>0.05
Experimental: Primary human corpus cavernosum smooth muscle cells ([…]) were provided by the Andrology Center of Peking University. The […] of the third passage were cultured in six plates for two days. Then the cells were treated with icariside II or the sildenafil at the concentration of 0, 10^-9, 10^-8, 10^-7, 10^-6, 10^-5, M for 4 hours; or treated with icariside II or the sildenafil at the concentration of 0, 10^-9, 10^-8, 10^-7, 10^-6, 10^-5, 10^-4 M for 4 hours followed by a treatment with 10^-5 M of SNP for 30 min. The control group was cultured with DMEM only. Then to each well was added 0.4 mL 0.1 M HCl and incubated at room temperature for 20 minutes. Then the lysed cells are harvested. The cell suspension was collected in centrifuge tubes and centrifuged at 1000 g for 10 minutes; 60 μl cell suspension was taken for protein concentration assay with the BCA protein kit, and 100 μl cell suspension was taken for cGMP or cAMP concentration test. The concentration of cGMP [pmol/(mg prot·min)]=[cGMP or cAMP concentration×supernatant volume]÷reaction time×protein concentration in each well×supernatant volume].

[5] = 10^−8 M, listed as icariside II

Row | Compound | NOS enzyme activity ([1]; 10^−5 M) | NOS enzyme activity ([1]; 10^−6 M) | NOS enzyme activity ([1]; 10^−7 M) | NOS enzyme activity ([1]; 10^−8 M) | NOS enzyme activity ([1]; 10^−9 M) | NOS enzyme activity (PAE-EGFR cells [2]; 10^−5 M) | NOS enzyme activity (PAE-EGFR cells [2]; 10^−6 M) | NOS enzyme activity (PAE-EGFR cells [2]; 10^−7 M) | NOS enzyme activity (PAE-EGFR cells [2]; 10^−8 M) | NOS enzyme activity (PAE-EGFR cells [2]; 10^−9 M) | eNOS protein expression (normalized to β-actin) (PAE cells) | eNOS expression levels (PAE cells) | eNOS protein expression (normalized to β-actin) (PAE-EGFR cells [3]) | eNOS expression levels (PAE-EGFR cells [3]) | effect on the cAMP concentration [4] | other results
1 | CCCc1nn(C)c2c(=O)[nH]c(-c3cc(S(=O)(=O)N4CCN(C)CC4)ccc3OCC)nc12 [Sildenafil, sildenafil, reference compound] | 6.66 ± 0.65 u/mg | 5.99 ± 0.58 u/mg | 6.32 ± 0.63 u/mg | 5.85 ± 0.579 u/mg | 5.76 ± 0.56 u/mg | 8.99 ± 0.87 u/mg | 8.4 ± 0.84 u/mg | 8.53 ± 0.84 u/mg | 8.37 ± 0.82 u/mg | 8.48 ± 0.85 u/mg | 1.12 ± 0.09 | 1.38 | 1.38 ± 0.013 | 1.12 | no significant effect | effect on NOS activity in endothelial cells ([1]; endothelial cells (PAE, PAE-EGFR), p>0.05): no significant effect
2 | icariside II | 18.66 ± 1.79 u/mg | 19.1 ± 1.9 u/mg | 16.46 ± 1.63 u/mg | 10.71 ± 0.98 u/mg | 8.65 ± 0.87 u/mg | 22.74 ± 2.27 u/mg | 23.91 ± 2.36 u/mg | 22.79 ± 2.45 u/mg | 15.37 ± 1.51 u/mg | 11.72 ± 1.21 u/mg | 1.08 ± 0.09 | 2.08 | 2.08 ± 0.02 | 1.16 | no significant effect | NOS enzyme activity ([1]; 10^−6 M, listed as icariside II): 19.1±1.891 u/mg; NOS enzyme activity [1, 5]: 10.71±1.09 u/mg; NOS activity in PAE-EGFR cells higher than the activity in PAE cells (PAE-EGFR cells [2]; 10^−8 M): 4.66 u/mg; NOS enzyme activity (PAE-EGFR cells [2]; [5]): 15.37±1.49 u/mg; EC50 ([4]; in presence of 10^−5 M SNP, read-out: EC50 of cGMP concentration increase): 1020 nM
